Source: patent US10837044B2, “Automated method for analyzing and interpreting an antimicrobial susceptibility” (FONDATION MEDITERRANEE INFECTION, priority 2014, dated 2020)

Tests used:
Klebsiella pneumoniae = test: antibiogram by diffusion on Mueller-Hinton agar with antibiotic wafers; type: cell-based; conditions: Table C2, sixteen wafers, square dish
Experimental: (§1) The inoculum was prepared by making a suspension of bacteria directly from colonies put into solution in tubes of sterile water so that the solution presented accurate opacity as determined with a spectrophotometer equivalent to the opacity of a 0.5 standard in the McFarland range. This bacterial suspension concentration is standardized since a more concentrated inoculum would lead to smaller diameters for the inhibition zone, and vice versa.
(§2) The inoculum corresponds to concentrations of about 10^8 CFU/mL for Escherichia coli, Klebsiella pneumoniae, Proteus mirabilis, Klebsiella oxytoca, Enterobacter cloacea, Enterobacter aerogenes, Entercoccus faecalis, Pseudomonas aeruginosa, Staphylococcus aureus, and Staphylococcus epidermidis. These are the ten species bacteria that are encountered the most frequently in human pathologies.
(§3) 1.2) The bacterial sample was deposited on a solid culture medium in a petri dish having a diameter of 90 mm or in a square dish having a side of 120 mm, the medium being constituted by a Mueller-Hinton agar specific for (EUCAST) antibiograms. Ideally, it should be used in the 15 minutes (min) following preparation of the suspension.
(§4) Seeding was done by the method of diffusion on an agar medium by flooding in which excess bacterial suspension was added to the Mueller-Hinton agar. After homogenizing, excess liquid was discarded in order to avoid over-inoculating the dishes. It is necessary to wait beforehand for the surface of the agar to be dry in order to eliminate any trace of moisture encouraging bacterial invasion.
(§5) The disks of the antibiotic wafers were deposited within 15 min after inoculating the agar. The antibiotic impregnated disks were deposited using an automatic dispenser that placed the disks firmly on the surface of the inoculated and dried agar. The number of disks deposited per dish was limited because of inhibition zone overlap and in order to limit interference between antibiotics. It is important for the inhibition diameters to be measurable. The antibiograms were then incubated at 37° C. for 18 hours (h) to 24 h.
(§6) The antibiotic wafers were made of high quality absorbent paper with a diameter of 6 mm and they were impregnated with antibiotics at concentrations in the range 1 micrograms (μg) to 300 μg approximately, depending on the antibiotic.
(§7) In the examples below, reference disks were used as sold by the suppliers i2a (Montpellier, France), BD (Becton Dickinson, USA), Bio-Rad (Hercules, USA), Biomerieux (Marcy l′Etoile, France) containing the following antibiotics and carrying the following codes and the following doses: AMX (amoxicillin) 25 μg: AMC (amoxicillin-clavulanic acid) 20 μg-10 μg; GM for gentamicin, 15 μg; SXT (trimethoprim-sulfamethoxazole) 1.25/23.75 μg; TIC (ticarcillin) 75 μg; TCC (ticarcillin-clavulanic acid) […]; TZP (piperacillin-tazobactam) 75/10 μg; CAZ (ceftazidime) 30 μg; IMP or IPM (imipeneme) 10 μg; COL (colistin) 50 μg; FOX (cefoxitine) 30 μg; VAN (vancomycin) 30 μg; TEC (teicoplanin) 30 μg; CLI or DA (clindamycin) 2 μg; CRO (ceftriaxone) 30 μg; CIP (ciprofloxacin) 5 μg; OFX (ofloxacin) 5 μg; CTX (cefotaxime) 5 μg; AN or AK (amikacin) 30 μg; TM (tobramycin) 10 μg; FOX (cefoxitine) 30 μg; ATM (aztreonam) 30 μg; ERT (ertapenem) 10 μg; FF (fosfomycin) 200 μg; DO (doxycycline) 30 μg; K (kanamycin) 1000 μg; L (lincomycin) 15 μs; LNZ (linezolid) 10 μg; AN (nalidixic acid) 30 μg; NOR (norfloxacin) 10 μg; PT (pristinamycin) 15 μg; RA (rifampicin) 5 μg; and E (erythromycin) 15 μg.

Escherichia coli [1] = test: as above; type: cell-based; conditions: Table C2, square dish
Experimental: as §1, §2, §3, §4, §5, §6, §7

Pseudomonas aeruginosa = test: as above; type: cell-based; conditions: Table C1, six wafers, disk loads of Table B
Experimental: as §1, §2, §3, §4, §5, §6, §7

Staphylococcus aureus = test: as above; type: cell-based; conditions: Table C2, sixteen wafers, square dish
Experimental: as §1, §2, §3, §4, §5, §6, §7

Escherichia coli [2] = conditions: cited from earlier work; for Critical diameters (mm) R> / Critical diameters (mm) S≤: disk load 10 μg, inhibition zone diameter; for Critical diameters (mm) R> / Critical concentrations (mg/L) R>: resistant; for Critical diameters (mm) S≤ / Critical concentrations (mg/L) S≤: sensitive; for Critical concentrations (mg/L) R>: high critical concentration; for Critical concentrations (mg/L) S≤: low critical concentration
[3] = K. pneumoniae phenotype Cephalosporinase + R to aminosides + R to cotrimoxazole
[4] = E. coli phenotype Cephalosporinase + R to fluoroquinolones + R to cotrimoxazole + partial R to aminosides, sixteen wafers
[5] = E. coli phenotype Hl penicillinase + R to fluoroquinolones + R to cotrimoxazole + partial R to aminosides, sixteen wafers
[6] = E. coli phenotype Wild, sixteen wafers in a rectangular grid
[7] = P. aeruginosa Abnormal phenotype
[8] = P. aeruginosa phenotype Carbapenemase
[9] = P. aeruginosa phenotype Penicillinase
[10] = P. aeruginosa phenotype Selective imipenem permeability
[11] = S. aureus phenotype R to methicilline, R to aminosides, fluoroquinolones, to rifampicie, to macrolides and the like

Molecule	resistant (I/R) or sensitive (S) (Klebsiella pneumoniae; [3])	resistant (I/R) or sensitive (S) (Klebsiella pneumoniae; K. pneumoniae phenotype Wild)	resistant (I/R) or sensitive (S) (Escherichia coli [1]; [4])	resistant (I/R) or sensitive (S) (Escherichia coli [1]; [5])	resistant (I/R) or sensitive (S) (Escherichia coli [1]; [6])	resistant (I/R) or sensitive (S) (Staphylococcus aureus; [11])	resistant (I/R) or sensitive (S) (Staphylococcus aureus; S. aureus phenotype Wild)	other results
NCC[C@H](O)C(=O)N[C@@H]1C[C@H](N)[C@@H](O[C@H]2O[C@H](CN)[C@@H](O)[C@H](O)[C@H]2O)[C@H](O)[C@H]1O[C@H]1O[C@H](CO)[C@@H](O)[C@H](N)[C@H]1O [AK, amikacin]	S	R	S	S	S			
C[C@H]1[C@H](NC(=O)/C(=N\OC(C)(C)C(=O)O)c2csc(N)n2)C(=O)N1S(=O)(=O)O [ATM, aztreonam]	R	R	R	S	S			
CC(C)(O/N=C(\C(=O)N[C@@H]1C(=O)N2C(C(=O)[O-])=C(C[n+]3ccccc3)CS[C@H]12)c1csc(N)n1)C(=O)O [CAZ, ceftazidime]								resistance (I, R) or sensitivity (S) (Pseudomonas aeruginosa; [7]): S; resistance (I, R) or sensitivity (S) (Pseudomonas aeruginosa; P. aeruginosa phenotype BSBL): R; resistance (I, R) or sensitivity (S) (Pseudomonas aeruginosa; [8]): R; resistance (I, R) or sensitivity (S) (Pseudomonas aeruginosa; [9]): S; resistance (I, R) or sensitivity (S) (Pseudomonas aeruginosa; [10]): S; resistance (I, R) or sensitivity (S) (Pseudomonas aeruginosa; P. aeruginosa phenotype Wild): S
O=C(O)c1cn(C2CC2)c2cc(N3CCNCC3)c(F)cc2c1=O [CIP, ciprofloxacin]	R	S	R	R	S	R	S	
CO/N=C(\C(=O)N[C@@H]1C(=O)N2C(C(=O)O)=C(COC(C)=O)CS[C@H]12)c1csc(N)n1 [CTX, cefotaxime]	R	R	R	S	S			
C[C@H]1c2cccc(O)c2C(=O)C2=C(O)[C@]3(O)C(=O)C(C(N)=O)=C(O)[C@@H](N(C)C)[C@@H]3[C@@H](O)[C@@H]21 [DO, doxycycline]						R	S	
C[C@@H](O)[C@H]1C(=O)N2C(C(=O)O)=C(S[C@@H]3CN[C@H](CNS(N)(=O)=O)C3)[C@H](C)[C@H]12 [Doripenem]								Critical diameters (mm) R> (Escherichia coli [2]): 21 mm; Critical diameters (mm) S≤ (Escherichia coli [2]): 24 mm; Critical concentrations (mg/L) R> (Escherichia coli [2]): 2 mg/L; Critical concentrations (mg/L) S≤ (Escherichia coli [2]): 1 mg/L
CC[C@H]1OC(=O)[C@H](C)[C@@H](O[C@H]2C[C@@](C)(OC)[C@@H](O)[C@H](C)O2)[C@H](C)[C@@H](O[C@@H]2O[C@H](C)C[C@H](N(C)C)[C@H]2O)[C@](C)(O)C[C@@H](C)C(=O)[C@H](C)[C@@H](O)[C@]1(C)O [E, erythromycin]						R	S	
C[C@@H](O)[C@H]1C(=O)N2C(C(=O)O)=C(S[C@@H]3CN[C@H](C(=O)Nc4cccc(C(=O)O)c4)C3)[C@H](C)[C@H]12 [Ertapenem]								Critical diameters (mm) R> (Escherichia coli [2]): 22 mm; Critical diameters (mm) S≤ (Escherichia coli [2]): 25 mm; Critical concentrations (mg/L) R> (Escherichia coli [2]): 1 mg/L; Critical concentrations (mg/L) S≤ (Escherichia coli [2]): 0.5 mg/L
C[C@@H]1O[C@@H]1P(=O)(O)O [FF, fosfomycin]						R	S	
CC(=O)NC[C@H]1CN(c2ccc(N3CCOCC3)c(F)c2)C(=O)O1 [LNZ, linezolid]						S	S	
C[C@@H](O)[C@H]1C(=O)N2C(C(=O)O)=C(S[C@@H]3CN[C@H](C(=O)N(C)C)C3)[C@H](C)[C@H]12 [Meopenem]								Critical diameters (mm) R> (Escherichia coli [2]): 16 mm; Critical diameters (mm) S≤ (Escherichia coli [2]): 22 mm; Critical concentrations (mg/L) R> (Escherichia coli [2]): 8 mg/L; Critical concentrations (mg/L) S≤ (Escherichia coli [2]): 2 mg/L
CC1COc2c(N3CCN(C)CC3)c(F)cc3c(=O)c(C(=O)O)cn1c23 (centres unmarked) [OFX, ofloxacin]	R	S	R	R	S			
Cc1onc(-c2ccccc2)c1C(=O)N[C@@H]1C(=O)N2[C@@H]1SC(C)(C)[C@@H]2C(=O)O [OXA, oxacillin]						R	S	
CO[C@H]1/C=C/O[C@@]2(C)Oc3c(C)c(O)c4c(O)c(c(/C=N/N5CCN(C)CC5)c(O)c4c3C2=O)NC(=O)/C(C)=C\C=C\[C@H](C)[C@H](O)[C@@H](C)[C@@H](O)[C@@H](C)[C@H](OC(C)=O)[C@@H]1C [RA, rifampicin]						R	S	
CC1(C)S[C@@H]2[C@H](NC(=O)[C@H](C(=O)O)c3ccsc3)C(=O)N2[C@H]1C(=O)O [TIC, ticarcillin]	R	R	R	R	S			resistance (I, R) or sensitivity (S) (Pseudomonas aeruginosa; [7]): R; resistance (I, R) or sensitivity (S) (Pseudomonas aeruginosa; P. aeruginosa phenotype BSBL): I/R; resistance (I, R) or sensitivity (S) (Pseudomonas aeruginosa; [8]): R; resistance (I, R) or sensitivity (S) (Pseudomonas aeruginosa; [9]): R; resistance (I, R) or sensitivity (S) (Pseudomonas aeruginosa; [10]): S; resistance (I, R) or sensitivity (S) (Pseudomonas aeruginosa; P. aeruginosa phenotype Wild): S
NC[C@H]1O[C@H](O[C@H]2[C@H](O)[C@@H](O[C@H]3O[C@H](CO)[C@@H](O)[C@H](N)[C@H]3O)[C@H](N)C[C@@H]2N)[C@H](N)C[C@@H]1O [TOB, tobramycin]	R	R	R	R	S	R	S	
pristinamycin [PT]						R	S	
